Patent US9480280B2, “Taste modifiers” (Givaudan S.A., priority 2012, dated 2016)

Key:
[1] = Rebaudioside A evaluation (taste descriptors); conditions: compared to base without compound
Description: A tasting base was prepared with 300 ppm Rebaudioside A in ater. Compounds were added to the base in the concentrations indicated in the table and compared to the base without compound added.

[2] = Skim milk evaluation of creamyness/mouthfeel enhancement; conditions: 10 ppm in skim milk, compared to base without compound
Source text: Skim milk was used as a base to evaluate the creamyness/mouthfeel enhancement properties of the compounds. Samples with compound were compared to the base without compound added.

[3] = Red Bull drink evaluation of masking; conditions: compared to base without compound
Description: A commercial Red Bull™ Energy drink was used as a base to evaluate the masking properties of the compounds. Compounds were added to the base in the concentrations indicated in the table and compared to the base without compound added.

[4] = Sucralose evaluation of bitter masking; conditions: compared to base without compound
Description: Compounds were prepared in a sucralose base containing 80 ppm sucralose in water. Compounds were calculated in the base and compared to the base without may compound added.
A solution containing 80 ppm sucralose in water was used as a base to evaluate the bitter masking properties of the compounds. Samples with compound were compared to the base without compound added.

[5] = Kefir evaluation of creamyness/mouthfeel enhancement; conditions: compared to base without compound
Source text: A commercial Kefir drink was used as a base to evaluate the creamyness/mouthfeel enhancement properties of the compounds. Samples with compound were compared to the base without compound added.

[6] = J. Agr. Food. Chem. 2007, 55, 9634-9645; cited from earlier work
[7] = Low fat milk evaluation of creamyness/mouthfeel enhancement; conditions: 4 ppm in low fat milk (1.5-2% fat), compared to base without compound
Source text: Low fat milk (1.5-2% fat) was used as a base to evaluate the creamyness/mouthfeel enhancement properties of the compounds. Samples with compound were compared to the base without compound added.

[8] = Sweetened yogurt evaluation of creamyness/mouthfeel enhancement; conditions: 10 ppm in yogurt with 5% sucrose and 0.03% creamy mouthfeel flavor, compared to base without compound
Source text: Sweetened yogurt with flavor was used as a base to evaluate the creamyness/mouthfeel enhancement properties of the compounds. The yogurt base was sweetened with 5% sucrose and 0.03% creamy mouthfeel flavor (Givaudan 97584209). Samples with compound were compared to the sweetened base without compound added.

[9] = 2 ppm in 300 ppm Rebaudioside A in water
[10] = 5 ppm in 300 ppm Rebaudioside A in water
[11] = 10 ppm in 300 ppm Rebaudioside A in water
[12] = 10 ppm in Red Bull Energy drink
[13] = 2 ppm in 80 ppm sucralose in water
[14] = 5 ppm in 80 ppm sucralose in water
[15] = 10 ppm in 80 ppm sucralose in water
[16] = 2 ppm in commercial Kefir drink
[17] = 5 ppm in commercial Kefir drink

Row | SMILES | Taste Description [1, 9] | Taste Description [1, 10] | Taste Description [1, 11] | Taste Description [2] | Taste Description ([3]; 5 ppm in Red Bull Energy drink) | Taste Description [3, 12] | Taste Description [4, 13] | Taste Description [4, 14] | Taste Description [4, 15] | Taste Description [5, 16] | Taste Description [5, 17] | effect on cream flavour / creaminess [6] | Taste Description [7] | Taste Description [8]
1 | CCC(O)CCCC1CCC(=O)O1 (stereo not drawn) [8-hydroxy gamma decalactone, 5-(4-hydroxyhexyl)dihydrofuran-2(3H)-one] | Masks lots of bitter, less | Some masking | High offnote, masks more | Some mouthfeel effect | Good masking. less sweet | Offnote, similar to control | Floral, little masking, waxy, | Some effect | Masks sweetness, floral, | Much creamier, fattier, fuller, | more mid body, creamier | – | – | –
2 | CCCCCCCCCC1CCCC(=O)O1 (stereo not drawn) [δ-tetradecalactone] | – | – | – | – | – | – | – | – | – | – | – | able to enhance the retronasal cream flavour | – | –
3 | CCC(O)CCCCCCC(=O)O (stereo not drawn) [8-Hydroxy decanoic acid, 8-hydroxydecanoic Acid] | Less bitter, less bitter | Less bitter, less bitter | Helps overall especially | Some mouthfeel effect | – | – | Less lingering, more | Velvety mouthfeel. very full. | No masking, adds | – | Creamy. fatty mouthfeel. good | – | Slight mouthfeel | Lingering waxy profile, fattier.
4 | CC(O)CCCCC1CCC(=O)O1 (stereo not drawn) [9-hydroxy gamma decalactone, 5-(5-hydroxyhexyl)dihydrofuran-2(3H)-one] | Slight fatty note at end. | Not much | High offnote, changes | No mouthfeel | Less sweetness, strong linger | Good masking, offnote | Floral, little masking, waxy, | Some effect | High offnote. masks | More creamy than control, upfront | More dairy note, more mid body. | – | – | –
5 | CC(O)CCCCCCCC(=O)O (stereo not drawn) [9-Hydroxy decanoic acid, 9-hydroxydecanoic Acid] | Less bitter, lingering, more | Less bitter, lingernig, waxy, | Offtaste, not much | Some mouthfeel effect | – | Masks better than control | Less bitter. lingering, more | Backend masks lingering. | Nice mouthfeel, full upfront | Very creamy, slight mouthfeel, more | Very creamy, mouth-coating, smooth, | – | Slightly more mouthfeel | Lingering waxy profile, fattier.
